Reference: patent publication US5292669A, “Agents for the detection of substrates with hydrolase activity” (Boehringer Mannheim GmbH, priority 1992, dated 1994)

Assays:
[1] = tested on: esterase from hog's liver; assay: spot test: hydrolysis of substrate on buffer-oxidation agent paper, visual colour evaluation; assay type: biochemical; design: key: +: coloration; ++: strong coloration; +++: strong and rapid coloration; settings: potassium ferricyanide, enzyme about 1000 U/ml., ambient temperature; for Coloration pH 6: pH 6.0 fleece; for Coloration pH 9: pH 9.0 fleece
Procedure: (§1) In a spot test, there was investigated the hydrolysis of various compounds by appropriate hydrolases (aryl sulphatase, acidic and alkaline phosphatase, esterase, acetyl-β-O-glucosamidase and lipase). The base thereby liberated was simultaneously oxidized by potassium ferricyanide to the colored material and the color formation evaluated visually.
(§2) The rate of hydrolysis was evaluated visually at pH 6.0, as well as at pH 9.0, by spotting a hydrolase solution on to a substrate-buffer-oxidation agent-paper. The enzyme concentration was about 1000 U/ml. and the test temperature was ambient temperature. The non-enzymatic hydrolysis with a 0.9% aqueous sodium chloride solution as sample was evaluated for the purpose of comparison.
(§3) Impregnation solution: 100 mmole/liter potassium dihydrogen phosphate 10 mmole/liter potassium ferricyanide 2% Pluronic® F 68
(§4) The pH value was adjusted to 6.0 with a 2N aqueous solution of potassium hydroxide.
(§5) Impregnation solution: 100 mmole/liter glycine 10 mmole/liter potassium ferricyanide 2% Pluronic® 68
(§6) The pH value was adjusted to 9.0 with a 2N aqueous solution of sodium hydroxide.
(§7) Impregnation: An 8×30 cm. paper fleece (Whatman 3M) was impregnated with 8 ml. of impregnation solution and dried for 30 minutes at 50° C. in a drying cabinet.
(§8) The so impregnated buffer-oxidation agent papers were cut up into 8×2 cm. strips and post-impregnated with substrate solution. Substrate solution/impregnation solution: 5 mg. of the substrate to be tested (or the free base) were dissolved or suspended in 1 ml. methanol and, in each case, 10 μl. thereof applied to the buffer-oxidation agent papers. The solvent was evaporated with a blow drier. On to this substrate oxidation agent surface were then dosed on the hydrolase solutions and evaluated. […]

lipase = assay: as above; assay type: biochemical; design: key: +: coloration; ++: strong coloration; +++: strong and rapid coloration; settings: potassium ferricyanide, enzyme about 1000 U/ml., ambient temperature
Procedure: as §1, §2, §3, §4, §5, §6, §7, §8

alkaline phosphatase = assay: as above; assay type: biochemical; design: key: +: coloration; ++: strong coloration; +++: strong and rapid coloration; settings: potassium ferricyanide, enzyme about 1000 U/ml., ambient temperature; for Coloration pH 9: pH 9.0 fleece; for Coloration pH 6: pH 6.0 fleece
Procedure: as §1, §2, §3, §4, §5, §6, §7, §8

[2] = tested on: N-acetyl-β-D-glucosaminidase; assay: as above; assay type: biochemical; design: key to Coloration pH 6 / Coloration pH 9: +: coloration; ++: strong coloration; +++: strong and rapid coloration
Procedure: as §1, §2, §3, §4, §5, §6, §7, §8

[3] = biological target: T1, β-galactosidase labelled immune complex (Escherichia coli, UniProt P00722); assay: thyroxine (T4) test strip: colour formation from galactosidase substrate; assay type: biochemical; settings: T4-containing sample, sodium perborate/horseradish peroxidase, after 10 minutes
T1 sequence (P00722 2-1024, one chain of several): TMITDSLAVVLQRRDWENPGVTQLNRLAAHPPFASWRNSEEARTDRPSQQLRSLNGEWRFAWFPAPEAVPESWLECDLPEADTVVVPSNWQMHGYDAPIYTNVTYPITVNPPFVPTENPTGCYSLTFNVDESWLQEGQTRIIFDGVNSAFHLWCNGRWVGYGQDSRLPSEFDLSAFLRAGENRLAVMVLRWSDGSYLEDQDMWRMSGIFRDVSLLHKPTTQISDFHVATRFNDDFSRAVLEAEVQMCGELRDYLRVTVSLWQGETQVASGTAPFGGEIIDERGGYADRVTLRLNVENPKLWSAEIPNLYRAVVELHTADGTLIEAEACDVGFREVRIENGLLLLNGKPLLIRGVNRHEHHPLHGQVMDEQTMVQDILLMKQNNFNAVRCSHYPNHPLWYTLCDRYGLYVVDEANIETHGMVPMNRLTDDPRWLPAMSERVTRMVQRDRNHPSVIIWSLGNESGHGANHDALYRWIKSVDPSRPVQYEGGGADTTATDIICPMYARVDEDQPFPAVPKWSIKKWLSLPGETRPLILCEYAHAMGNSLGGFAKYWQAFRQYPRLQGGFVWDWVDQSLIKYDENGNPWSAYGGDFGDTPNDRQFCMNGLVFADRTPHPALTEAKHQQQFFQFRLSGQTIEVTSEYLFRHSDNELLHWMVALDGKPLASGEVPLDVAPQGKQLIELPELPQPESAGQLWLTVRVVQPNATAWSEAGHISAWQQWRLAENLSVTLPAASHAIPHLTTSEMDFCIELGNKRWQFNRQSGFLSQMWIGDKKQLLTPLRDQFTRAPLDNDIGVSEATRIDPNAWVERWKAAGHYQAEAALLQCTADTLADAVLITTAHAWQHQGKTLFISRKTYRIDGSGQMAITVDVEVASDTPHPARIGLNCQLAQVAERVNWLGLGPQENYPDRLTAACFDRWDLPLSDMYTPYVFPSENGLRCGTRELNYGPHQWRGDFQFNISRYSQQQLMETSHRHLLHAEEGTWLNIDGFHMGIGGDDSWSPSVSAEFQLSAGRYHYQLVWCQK
Procedure: Fleece 14 is impregnated with a conjugate of β-galactosidase with an antibody against T4.
A piece of paper (Schleicher & Schull 3512) was activated with cyanogen bromide and T4 succinimide ester bound thereon.
d) Fleece 13 serves for the sample application.
For the production of the test carrier 11, the fleece are fixed to a base film 12 as shown in FIG. 2 of the accompanying drawings.
The sample was prepared analogously to Example 15.
The test strip 11 was placed with the end 17 in the solution. The T4-containing sample penetrates into the fleece 13. From there, it flows on into fleece 14 from where it dissolves off the β-galactosidase conjugate. […] The solution which now, besides this immune complex, also contains an excess of the β-galactosidase conjugate, penetrates into fleece 15. This excess is there bound to the paper via bound T4.
The solution which still contains the immune complex penetrates into fleece 16. The process according to the invention for the detection of the β-galactosidase labelled immune complex, which represents the substance with hydrolase activity, there takes place. The more of this complex and thus also the more of T4 was present in the solution, the more strongly has the fleece 16 become red colored after 10 minutes. In the case of the absence of T4, the fleece 16 remains white.

[4] = biological target: T1, β-galactosidase labelled immune complex; assay: hCG test carrier: colour formation from galactosidase substrate; settings: hCG-containing sample, sodium perborate/horseradish peroxidase, pH 7, within 10 minutes

| Coloration pH 6 [1] | Coloration pH 9 [1] | Compound | Coloration pH 9 (alkaline phosphatase) | other results |
| --- | --- | --- | --- | --- |
| + | ++ | CCC(=O)Oc1ccc(-c2nc(-c3ccc(N(C)C)cc3)c(C)[nH]2)cc1OC [Example 5a, 4-[4-(4-Dimethylaminophenyl)-5-methyl-1H-imidazol-2-yl]-2-methoxyphenyl propanoate] | – | – |
| ++ | ++ | CCCCC(=O)Oc1ccc(-c2nc(-c3ccc(N(C)C)cc3)c(C)[nH]2)cc1OC [Example 5c, 4-[4-(4-Dimethylaminophenyl)-5-methyl-1H-imidazol-2-yl]-2-methoxyphenyl pentanoate] | – | – |
| ++ | +++ | CCCCCCCC(=O)Oc1ccc(-c2nc(-c3ccc(N(C)C)cc3)c(C)[nH]2)cc1OC [Example 5d, 4-[4-(4-Dimethylaminophenyl)-5-methyl-1H-imidazol-2yl]-2-methoxyphenyl octanoate] | – | – |

Second part, the compound before the results:

| Compound | Coloration pH 6 [1] | Coloration pH 9 [1] | Coloration pH 9 (alkaline phosphatase) | other results |
| --- | --- | --- | --- | --- |
| COc1cc(-c2nc(-c3ccc(N(C)C)cc3)c(C)[nH]2)ccc1OC(C)=O [Example 4, 4-[4-(4-Dimethylaminophenyl)-5-methyl-1H-imidazol-2-yl]-2-methoxyphenyl acetate] | ++ | +++ | – | – |
| COc1cc(-c2nc(-c3ccc(N(C)C)cc3)c(C)o2)ccc1OC(C)=O [Example 4a, 4-[4-(4-Dimethylaminophenyl)-5-methyloxazol-2-yl]-2-methoxyphenyl acetate] | +++ | +++ | – | – |
| COc1cc(-c2nc(-c3ccc(N(C)C)cc3)c(C)s2)cc(OC)c1OC(C)=O [Example 4b, 4-[4-(4-Dimethylaminophenyl)-5-methylthiazol-2-yl]-2,6-dimethoxyphenyl acetate] | + | ++ | – | – |
| COc1cc(-c2nc(-c3ccc(N(C)C)cc3)c(-c3ccc(N(C)C)cc3)[nH]2)cc(OC)c1OC(C)=O [Example 4d, 4-[4,5-Bis-(4-dimethylaminophenyl)-1H-imidazol-2-yl]-2,6-dimethoxyphenyl acetate] | ++ | ++ | – | – |
| CCCCCCCCCCCC(=O)Oc1ccc(-c2nc(-c3ccc(N(C)C)cc3)c(C)[nH]2)cc1OC [Example 5, 4-[4-(4-Dimethylaminophenyl)-5-methyl-1H-imidazol-2-yl]-2-methoxyphenyl dodecanoate] | + | ++ | – | – |
| CCCC(=O)Oc1ccc(-c2nc(-c3ccc(N(C)C)cc3)c(C)[nH]2)cc1OC [Example 5b, 4-[4-(4-Dimethylaminophenyl)-5-methyl-1H-imidazol-2-yl]-2-methoxyphenyl butanoate] | ++ | +++ | – | Coloration pH 6 (lipase; pH 6.0 fleece): ++; Coloration pH 9 (lipase; pH 9.0 fleece): +++ |
| COc1cc(-c2nc(-c3ccc(N(C)C)cc3)c(C)[nH]2)ccc1OP(=O)(O)O [Example 6, 4-[4-(4-Dimethylaminophenyl)-5-methyl-1H-imidazol-2-yl]-2-methoxyphenyl dihydrogen phosphate] | – | – | ++ | – |
| COc1cc(-c2nc(-c3ccc(N(C)C)cc3)c(C)[nH]2)cc(OC)c1OP(=O)(O)O [Example 6a, 4-[4-(4-Dimethylaminophenyl)-5-methyl-1H-imidazol-2-yl]-2,6-dimethoxyphenyldihydrogen phosphate] | – | – | +++ | – |
| COc1cc(-c2nc(-c3ccc(N(C)C)cc3)c(-c3ccccc3)[nH]2)cc(OC)c1OP(=O)(O)O [Example 6b, 4-[4-(4-Dimethylaminophenyl)-5-phenyl-1H-imidazol-2-yl]-2,6-dimethoxyphenyldihydrogen phosphate] | – | – | +++ | Coloration pH 6 (alkaline phosphatase): ++ |
| COc1cc(-c2nc(-c3ccc(N(C)C)cc3)c(-c3ccc(N(C)C)cc3)[nH]2)cc(OC)c1OP(=O)(O)O [Example 6c, 4-[4,5-Bis-(4-dimethylaminophenyl)-1H-imidazol-2-yl]-2,6-dimethoxyphenyl dihydrogen phosphate] | – | – | ++ | Coloration pH 6 (alkaline phosphatase): + |
| COc1cc(-c2nc(-c3ccc(N(C)C)cc3)c(C)o2)ccc1OP(=O)(O)O [Example 7, 4-[4-(4-Dimethylaminophenyl)-5-methyl-oxazol-2-yl]-2-methoxyphenyl dihydrogen phosphate] | – | – | ++ | Coloration pH 6 (alkaline phosphatase): + |
| COc1cc(-c2nc(-c3ccc(N(C)C)cc3)c(-c3ccc(N(C)C)cc3)o2)cc(OC)c1OP(=O)(O)O [Example 7a, 4-[4,5-Bis-(4-dimethylaminophenyl)-oxazol-2-yl]-2,6-dimethoxyphenyl dihydrogen phosphate] | – | – | +++ | Coloration pH 6 (alkaline phosphatase): ++ |
| COc1cc(-c2nc(-c3ccc(N(C)C)cc3)c(C)[nH]2)ccc1O[C@@H]1O[C@H](CO)[C@@H](O)[C@H](O)[C@H]1NC(C)=O [Example 8, {4-[4-(4-Dimethylaminophenyl)-5-methyl-1H-imidazol-2-yl]-2-methoxyphenyl}-2-acetamido-2-deoxy-ε-D-glucopyranoside] | – | – | – | suitability as substrate (strong blue coloration) ([2]; at pH 6 and pH 9): very good substrate; Coloration pH 6 ([2]; pH 6.0 fleece, potassium ferricyanide, enzyme about 1000 U/ml., ambient temperature, visual): +++; Coloration pH 9 ([2]; pH 9.0 fleece, potassium ferricyanide, enzyme about 1000 U/ml., ambient temperature, visual): +++ |
| COc1ccc(-c2nc(-c3ccc(O[C@@H]4O[C@H](CO)[C@H](O)[C@H](O)[C@H]4O)c(OC)c3)[nH]c2-c2ccc(OC)cc2)cc1 [Example 12, 2-(4-β-D-Galactopyranosyloxy-3-methoxyphenyl)-4,5-bis-(4-methoxyphenyl)-I,3-imidazole] | – | – | – | colour of fleece 16 [3]: red colored; colour formed in fleece 6 [4]: red color |
